Test results published in patent US7034047B2, “Triazole derivative” (Astellas Pharma, Inc., priority 2000, dated 2006).

Assays:
[1] = target: T1, GLYT1 subtype of the glycine transporter (Rattus norvegicus, UniProt P28572); assay: [3H]-glycine uptake assay in C6 glioma cells (action of inhibiting glycine transporter); assay type: cell-based; details: 20 min at 37° C., read-out: GLYT-inhibiting activity IC50
T1 construct: C6 glioma cell expressing GLYT1 subtype of the glycine transporter; host or cells: C6 glioma cells
T1 sequence (P28572 1-638): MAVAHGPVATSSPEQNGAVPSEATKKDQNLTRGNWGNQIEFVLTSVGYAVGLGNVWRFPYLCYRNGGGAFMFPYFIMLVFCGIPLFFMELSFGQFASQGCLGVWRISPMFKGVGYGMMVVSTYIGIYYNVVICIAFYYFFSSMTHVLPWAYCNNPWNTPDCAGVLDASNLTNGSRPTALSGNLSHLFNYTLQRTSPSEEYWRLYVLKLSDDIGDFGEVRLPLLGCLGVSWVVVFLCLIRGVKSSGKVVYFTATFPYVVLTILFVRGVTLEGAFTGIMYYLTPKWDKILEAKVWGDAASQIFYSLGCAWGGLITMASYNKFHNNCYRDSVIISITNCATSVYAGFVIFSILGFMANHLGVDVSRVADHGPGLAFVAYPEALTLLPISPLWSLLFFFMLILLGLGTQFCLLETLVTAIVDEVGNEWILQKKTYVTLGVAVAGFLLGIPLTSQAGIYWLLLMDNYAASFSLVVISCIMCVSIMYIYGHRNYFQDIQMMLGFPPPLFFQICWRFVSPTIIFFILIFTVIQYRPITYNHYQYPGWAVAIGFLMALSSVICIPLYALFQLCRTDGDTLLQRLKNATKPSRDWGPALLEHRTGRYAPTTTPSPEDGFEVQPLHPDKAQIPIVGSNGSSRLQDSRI
Procedure: 1. Action of Inhibiting Glycine Transporter
C6 glioma cell (American Type Culture Collection) was cultured in DMEM containing 10% fetal bovine serum, 100 units/ml penicillin G and 0.1 mg/ml streptomycin sulfate in a CO2 incubator under conditions of 5% CO2 and 37° C.
[^3H]-glycine uptake was performed by the method of Gomeza, et al.
C6 glioma cells were plated out at a concentration of 2×10^4 cells/well in a 96-well plate (Culturplate, Packard Co.), for culturing for 2 days. Subsequently, [^3H]-glycine uptake was tested. The cell was rinsed once in a buffer (150 mM NaCl, 5 mM KCl, 1 mM CaCl2, 1 mM MgCl2, 10 mM glucose, 5 mM L-alanine, 10 mM Hepes-Na, pH 7.4), followed by subsequent addition of the buffer, for incubation at 37° C. for 10 minutes.
After incubation, the buffer was exchanged to a reaction buffer including [^3H]-glycine (about 0.2 μM, 41 Ci/mmol, New England Nuclear)and a compound to be assessed, for incubation at 37° C. for another 20 minutes. After 20-min reaction, the reaction mixture was rinsed in ice-cold PBS (phosphate buffered saline). The cell was dissolved in 0.1N NaOH solution, to assay the radioactivity incorporated with a liquid scintillation counter. The specific incorporation was defined as a portion substituted with 3 mM sarcosine in the total incorporation. The test compound was assessed by determining the incorporation-inhibiting ratio of the specific incorporation.

SMILES	IC50 [1]	melting point
Fc1ccccc1-n1c(CN2CCc3sccc3C2)nnc1-c1ccc(-c2ccccc2)cc1 [Example 202]	1600 nM	
CCc1nnc(-c2ccc(-c3ccccc3)cc2)n1-c1ccccc1Oc1cccnc1 [Example 279]	4600 nM	
c1ccc(-c2ccc(-c3nnc(-c4ccco4)n3-c3ccccc3)cc2)cc1 [Compound 2, 3-(biphenyl-4-yl)-5-(furan-2-yl)-4-phenyl-4H-1,2,4-triazole, reference compound]	4600 nM	
CC(C)c1nnc(-c2cnc(-c3ccccc3)c(Cl)c2)n1-c1c(F)cccc1F [Example 112]	1000 nM	
CN(CCCSc1nnc(-c2ccc(-c3ccccc3)cc2)n1-c1ccccc1F)CC(=O)O [Example 157]	1500 nM	
CSc1nnc(-c2ccc(-c3ccccc3)cc2)n1-c1ccccc1F [Example 12, 3-Biphenyl-4-yl-4-(2-fluorophenyl)-5-methylsulfanyl-4H-1,2,4-triazole]		199 to 200 °C
CC(C)c1nnc(-c2ccc(-c3ccccc3)nc2)n1-c1c(F)cccc1F [Example 1, 5-[4-(2,6-Difluorophenyl)-5-isopropyl-4H-triazol-3-yl]-2-phenylpyridine]	140 nM	

Further compounds by falling IC50 [1], results first:

IC50 [1]	melting point	SMILES
1000 nM		COc1ccccc1-n1c(C)nnc1-c1ccc(-c2ccccc2)cc1 [Compound 1, 3-(biphenyl-4-yl)-4-(2-methoxyphenyl)-5-methyl-4H-1,2,4-triazole, reference compound]
940 nM		CN(CC1CCCO1)c1nnc(-c2ccc(-c3ccccc3)cc2)n1-c1ccccc1F (stereo not shown) [Example 236]
410 nM		COCCCc1nnc(-c2ccc(-c3ccccc3)nc2)n1-c1cccc(C#N)c1C [Example 5, 3-[3-(3-Methoxypropyl)-5-(6-phenylpyridin-3-yl)-4H-1,2,4-triazol-4-yl]-2-methylbenzonitrile]
350 nM		CCc1nnc(-c2ccc(-c3ccccc3)cc2)n1-c1ccccc1OC [Compound 3, 3-(biphenyl-4-yl)-5-ethyl-4-(2-methoxyphenyl)-4H-1,2,4-triazole, reference compound]
330 nM		COCCN(C)c1nnc(-c2ccc(-c3ccccc3)nc2)n1-c1cccc2nonc12 [Example 9, 4-(2,1,3-Benzooxadiazol-4-yl)-N-(2-methoxyethyl)-N-methyl-5-(6-phenylpyridin-3-yl)-4H-1,2,4-triazol-3-ylamine]
250 nM		COCCN(C)c1nnc(-c2ccc(-c3ccccc3)nc2)n1-c1ccccc1C#N [Example 8, 2-{3-[N-(2-Methoxyethyl)-N-methylamino]-5-(6-phenylpyridin-3-yl)-4H-1,2,4-triazol-4-yl}benzonitrile]
200 nM		Cc1nnc(-c2ccc(-c3cccs3)cc2)n1-c1ccccc1F [Example 10, 4-(2-Fluorophenyl)-3-methyl-5-(4-thiophen-2-ylphenyl)-4H-1,2,4-triazole]
100 nM		CC(C)c1nnc(-c2ccc(-c3ccccc3)nc2)n1-c1cccc2nonc12 [Example 2, 4-[3-Isopropyl 5-(6-phenylpyridin-3-yl)-4H-1,2,4-triazol-4-yl]-2,1,3-benzooxadiazole]
86 nM		Cc1nnc(-c2ccc(-c3ccccc3)cc2)n1-c1ccccc1[N+](=O)[O-] [Example 256]
